{
  "source": "the supplement of paper PMC10307832",
  "test_in_all_cases": "relative viability (nuclei count vs DMSO), 5 days (fraction); higher = more cells survive",
  "key": {"A-427": {"system": "A-427", "how_it_was_run": "(§1)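 After 5 days of treatment, lung cancer cells in 1536-well plates were fixed and stained in a single step (final 0.05% Triton X-100, 1% formaldehyde, 1 ug/ml Hoechst) and their nuclei counted on 4× images. Treatment had been applied by pin tool the day after seeding as one drug alone or as a fixed anchor-drug dose with five library-drug doses (not always all listed) in √10 steps. Relative viability is the nuclei count of treated wells divided by that of vehicle wells, and values are medians of duplicate plates.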"}, "COR-L 105": {"system": "COR-L 105", "how_it_was_run": "as §1"}, "ChaGo-K-1": {"system": "ChaGo-K-1", "how_it_was_run": "as §1"}, "EKVX": {"system": "EKVX", "how_it_was_run": "as §1"}, "EMC-BAC-2": {"system": "EMC-BAC-2", "how_it_was_run": "as §1"}, "H3255": {"system": "H3255", "how_it_was_run": "as §1"}, "HCC-366": {"system": "HCC-366", "how_it_was_run": "as §1"}, "LK-2": {"system": "LK-2", "how_it_was_run": "as §1"}, "LOU-NH91": {"system": "LOU-NH91", "how_it_was_run": "as §1"}, "NCI-H1666": {"system": "NCI-H1666", "how_it_was_run": "as §1"}, "NCI-H1734": {"system": "NCI-H1734", "how_it_was_run": "as §1"}, "NCI-H1755": {"system": "NCI-H1755", "how_it_was_run": "as §1"}, "NCI-H1792": {"system": "NCI-H1792", "how_it_was_run": "as §1"}, "NCI-H1975": {"system": "NCI-H1975", "how_it_was_run": "as §1"}, "NCI-H2170": {"system": "NCI-H2170", "how_it_was_run": "as §1"}, "NCI-H23": {"system": "NCI-H23", "how_it_was_run": "as §1"}, "NCI-H441": {"system": "NCI-H441", "how_it_was_run": "as §1"}, "NCI-H520": {"system": "NCI-H520", "how_it_was_run": "as §1"}, "NCI-H596": {"system": "NCI-H596", "how_it_was_run": "as §1"}, "PC-3 [JPC-3]": {"system": "PC-3 [JPC-3]", "how_it_was_run": "as §1"}, "SK-MES-1": {"system": "SK-MES-1", "how_it_was_run": "as §1"}},
  "data": [
    {"smiles": "O=C(O)c1ccc(-c2c[nH]c3ncc(-c4ccccc4)cc23)cc1C1CCCC1", "note": "+ CC1(C)CCC(c2ccc(Cl)cc2)=C(CN2CCN(c3ccc(C(=O)NS(=O)(=O)c4ccc(N[C@H](CCN5CCOCC5)CSc5ccccc5)c(S(=O)(=O)C(F)(F)F)c4)cc3)CC2)C1 [Navitoclax] (partner 0.5 µM)", "values": [
      {"measurement": "relative viability", "setting": "A-427; first compound 0.04 µM", "result": 1.02},
      {"measurement": "relative viability", "setting": "A-427; first compound 0.1265 µM", "result": 0.936},
      {"measurement": "relative viability", "setting": "A-427; first compound 0.4 µM", "result": 0.868},
      {"measurement": "relative viability", "setting": "A-427; first compound 1.265 µM", "result": 0.708},
      {"measurement": "relative viability", "setting": "COR-L 105; first compound 0.04 µM", "result": 0.818},
      {"measurement": "relative viability", "setting": "COR-L 105; first compound 0.1265 µM", "result": 0.95},
      {"measurement": "relative viability", "setting": "COR-L 105; first compound 0.4 µM", "result": 0.733},
      {"measurement": "relative viability", "setting": "COR-L 105; first compound 1.265 µM", "result": 0.717},
      {"measurement": "relative viability", "setting": "ChaGo-K-1; first compound 0.04 µM", "result": 1.16},
      {"measurement": "relative viability", "setting": "ChaGo-K-1; first compound 0.1265 µM", "result": 1.3},
      {"measurement": "relative viability", "setting": "ChaGo-K-1; first compound 0.4 µM", "result": 0.888},
      {"measurement": "relative viability", "setting": "ChaGo-K-1; first compound 1.265 µM", "result": 1.32},
      {"measurement": "relative viability", "setting": "EKVX; first compound 0.04 µM", "result": 0.92},
      {"measurement": "relative viability", "setting": "EKVX; first compound 0.1265 µM", "result": 0.967},
      {"measurement": "relative viability", "setting": "EKVX; first compound 0.4 µM", "result": 1.03},
      {"measurement": "relative viability", "setting": "EKVX; first compound 1.265 µM", "result": 0.655},
      {"measurement": "relative viability", "setting": "EMC-BAC-2; first compound 0.04 µM", "result": 1.18},
      {"measurement": "relative viability", "setting": "EMC-BAC-2; first compound 0.1265 µM", "result": 1.23},
      {"measurement": "relative viability", "setting": "EMC-BAC-2; first compound 0.4 µM", "result": 1.16},
      {"measurement": "relative viability", "setting": "EMC-BAC-2; first compound 1.265 µM", "result": 1.22},
      {"measurement": "relative viability", "setting": "H3255; first compound 0.04 µM", "result": 0.572},
      {"measurement": "relative viability", "setting": "H3255; first compound 0.1265 µM", "result": 0.642},
      {"measurement": "relative viability", "setting": "H3255; first compound 0.4 µM", "result": 0.684},
      {"measurement": "relative viability", "setting": "H3255; first compound 1.265 µM", "result": 0.463},
      {"measurement": "relative viability", "setting": "HCC-366; first compound 0.04 µM", "result": 0.993},
      {"measurement": "relative viability", "setting": "HCC-366; first compound 0.1265 µM", "result": 1.2},
      {"measurement": "relative viability", "setting": "HCC-366; first compound 0.4 µM", "result": 0.964},
      {"measurement": "relative viability", "setting": "HCC-366; first compound 1.265 µM", "result": 1.14},
      {"measurement": "relative viability", "setting": "LK-2; first compound 0.04 µM", "result": 0.9},
      {"measurement": "relative viability", "setting": "LK-2; first compound 0.1265 µM", "result": 0.876},
      {"measurement": "relative viability", "setting": "LK-2; first compound 0.4 µM", "result": 0.795},
      {"measurement": "relative viability", "setting": "LK-2; first compound 1.265 µM", "result": 0.687},
      {"measurement": "relative viability", "setting": "LOU-NH91; first compound 0.04 µM", "result": 0.759},
      {"measurement": "relative viability", "setting": "LOU-NH91; first compound 0.1265 µM", "result": 0.73},
      {"measurement": "relative viability", "setting": "LOU-NH91; first compound 0.4 µM", "result": 0.68},
      {"measurement": "relative viability", "setting": "LOU-NH91; first compound 1.265 µM", "result": 0.541},
      {"measurement": "relative viability", "setting": "NCI-H1666; first compound 0.04 µM", "result": 1.02},
      {"measurement": "relative viability", "setting": "NCI-H1666; first compound 0.1265 µM", "result": 1.01},
      {"measurement": "relative viability", "setting": "NCI-H1666; first compound 0.4 µM", "result": 0.849},
      {"measurement": "relative viability", "setting": "NCI-H1666; first compound 1.265 µM", "result": 0.584},
      {"measurement": "relative viability", "setting": "NCI-H1734; first compound 0.04 µM", "result": 0.706},
      {"measurement": "relative viability", "setting": "NCI-H1734; first compound 0.1265 µM", "result": 0.916},
      {"measurement": "relative viability", "setting": "NCI-H1734; first compound 0.4 µM", "result": 0.878},
      {"measurement": "relative viability", "setting": "NCI-H1734; first compound 1.265 µM", "result": 0.686},
      {"measurement": "relative viability", "setting": "NCI-H1755; first compound 0.04 µM", "result": 0.98},
      {"measurement": "relative viability", "setting": "NCI-H1755; first compound 0.1265 µM", "result": 1.05},
      {"measurement": "relative viability", "setting": "NCI-H1755; first compound 0.4 µM", "result": 1.03},
      {"measurement": "relative viability", "setting": "NCI-H1755; first compound 1.265 µM", "result": 0.927},
      {"measurement": "relative viability", "setting": "NCI-H1792; first compound 0.04 µM", "result": 0.516},
      {"measurement": "relative viability", "setting": "NCI-H1792; first compound 0.1265 µM", "result": 0.728},
      {"measurement": "relative viability", "setting": "NCI-H1792; first compound 0.4 µM", "result": 0.661},
      {"measurement": "relative viability", "setting": "NCI-H1792; first compound 1.265 µM", "result": 0.588},
      {"measurement": "relative viability", "setting": "NCI-H1975; first compound 0.04 µM", "result": 1.13},
      {"measurement": "relative viability", "setting": "NCI-H1975; first compound 0.1265 µM", "result": 1.25},
      {"measurement": "relative viability", "setting": "NCI-H1975; first compound 0.4 µM", "result": 1.1},
      {"measurement": "relative viability", "setting": "NCI-H1975; first compound 1.265 µM", "result": 1.17},
      {"measurement": "relative viability", "setting": "NCI-H2170; first compound 0.04 µM", "result": 0.605},
      {"measurement": "relative viability", "setting": "NCI-H2170; first compound 0.1265 µM", "result": 0.64},
      {"measurement": "relative viability", "setting": "NCI-H2170; first compound 0.4 µM", "result": 0.483},
      {"measurement": "relative viability", "setting": "NCI-H2170; first compound 1.265 µM", "result": 0.503},
      {"measurement": "relative viability", "setting": "NCI-H23; first compound 0.04 µM", "result": 0.804},
      {"measurement": "relative viability", "setting": "NCI-H23; first compound 0.1265 µM", "result": 0.944},
      {"measurement": "relative viability", "setting": "NCI-H23; first compound 0.4 µM", "result": 0.757},
      {"measurement": "relative viability", "setting": "NCI-H23; first compound 1.265 µM", "result": 0.724},
      {"measurement": "relative viability", "setting": "NCI-H441; first compound 0.04 µM", "result": 0.751},
      {"measurement": "relative viability", "setting": "NCI-H441; first compound 0.1265 µM", "result": 0.583},
      {"measurement": "relative viability", "setting": "NCI-H441; first compound 0.4 µM", "result": 0.365},
      {"measurement": "relative viability", "setting": "NCI-H441; first compound 1.265 µM", "result": 0.469},
      {"measurement": "relative viability", "setting": "NCI-H520; first compound 0.04 µM", "result": 1.1},
      {"measurement": "relative viability", "setting": "NCI-H520; first compound 0.1265 µM", "result": 1.08},
      {"measurement": "relative viability", "setting": "NCI-H520; first compound 0.4 µM", "result": 1.18},
      {"measurement": "relative viability", "setting": "NCI-H520; first compound 1.265 µM", "result": 0.836},
      {"measurement": "relative viability", "setting": "NCI-H596; first compound 0.04 µM", "result": 0.82},
      {"measurement": "relative viability", "setting": "NCI-H596; first compound 0.1265 µM", "result": 1.12},
      {"measurement": "relative viability", "setting": "NCI-H596; first compound 0.4 µM", "result": 0.869},
      {"measurement": "relative viability", "setting": "NCI-H596; first compound 1.265 µM", "result": 0.884},
      {"measurement": "relative viability", "setting": "PC-3 [JPC-3]; first compound 0.04 µM", "result": 0.817},
      {"measurement": "relative viability", "setting": "PC-3 [JPC-3]; first compound 0.1265 µM", "result": 0.886},
      {"measurement": "relative viability", "setting": "PC-3 [JPC-3]; first compound 0.4 µM", "result": 0.7},
      {"measurement": "relative viability", "setting": "PC-3 [JPC-3]; first compound 1.265 µM", "result": 0.564},
      {"measurement": "relative viability", "setting": "SK-MES-1; first compound 0.04 µM", "result": 1.19},
      {"measurement": "relative viability", "setting": "SK-MES-1; first compound 0.1265 µM", "result": 1.24},
      {"measurement": "relative viability", "setting": "SK-MES-1; first compound 0.4 µM", "result": 1.05},
      {"measurement": "relative viability", "setting": "SK-MES-1; first compound 1.265 µM", "result": 0.798}
    ]}
  ]
}
